Data on 17 compounds can be found in patent US4435396A, “Antiulcer 2-guanidino-4-(2-substituted-amino-4-imidazolyl)thiazoles and process therefor” (Pfizer Inc., priority 1982, dated 1984).

Each structure is given as a SMILES string. Several values for one entry are separate records, joined by “and”; a condition that tells them apart may be missing. Identical values can stand only once.

Assay [1] relates to ethanol-induced ulceration in rats. The assay is described as follows: Inhibition of ethanol-induced ulceration in rats. Particulars: oral dose of 30 mg/kg; for inhibition in vivo at 30 mg/kg: Rattus norvegicus, po. In kind it is in vivo, rat. As for the experimental part:
The antiulcer activity of the products of this invention was also determined by an ethanol-induced rat ulcer assay. […] One hour after the ethanol challenge the animals (8/group) are killed and the stomachs examined for the presence of lesions. After sacrifice the abdomen is opened and a locking hemostat placed at the pylorus. Six ml of a 4% solution of formaldehyde was injected into the stomach with a gastric feeding tube and a second locking hemostat was used to seal the esophagus. The stomach was removed, opened along the greater curvature and examined for ulceration.
The scoring system used to quantitate the ethanol-induced lesions is given below.
For each group of animals an ulcer index is calculated as follows:
Ulceration Index=(the sum of the scores of the group)×(the sum of the number of ulcers in the group)×(the fraction of the group having any incidence of ulceration).
The percentage inhibition of ulcers is calculated as follows:
% Inhibition=100×[(ulcer index controls)-(ulcer index
drug-treated)].div.(ulcer index controls).

A further assay deals with T1, H2 -receptor (Cavia porcellus, UniProt P47747).
T1 construct: the heart removed and the right atria dissected free; from tissue; host or cells: guinea pig right atria
The assay is described as follows: Histamine-H2 antagonist activity in isolated guinea pig right atria. It is filed as cell-based. The settings on record: histamine dose-response, read-out: pA2 (apparent dissociation constant of the H2-receptor antagonist) (converted). As to the method:
The histamine-H2 antagonist activity of compounds of the present invention was determined by the following procedure:
Guinea pigs are killed rapidly with a blow to the head, the heart removed and the right atria dissected free. Atria are suspended, isometrically, in a temperature-controlled (32°±2°) tissue bath (10 ml) containing oxygenated (95% O2; 5% CO2) Krebs-Henseleit buffer (pH 7.4) and are allowed to stabilize approximately one hour during which time the tissue bath is flushed several times. Individual atrial contractions are followed with a force-displacement transducer connected to a cardiotachometer and Grass polygraph recorder. After obtaining a dose-response curve to histamine, the bath containing each atrium is flushed several times with fresh buffer and the atria reequilibrated to basal rates. Following the return to basal rate, test compounds are addded at selected final concentrations and the histamine dose-response curve is again determined in the presence of antagonist. Results are expressed as dose-ratios, the ratio of histamine concentrations required to produce one-half of maximal stimulation in the presence and absence of antagonist, and the apparent dissociation constant of the H2 -receptor antagonist pA2, is determined.

The next assay concerns Heidenhain pouch dogs. Briefly: Gastric acid antisecretory activity in pentagastrin-stimulated conscious Heidenhain pouch dogs. In kind it is in vivo, dog. The settings on record: intravenously. As for the experimental part:
The gastric acid antisecretory activity of compounds of the present invention was determined in overnight fasted, conscious Heidenhain pouch dogs. Pentagastrin (Pentavolon-Ayerst) was used to stimulate acid output by continuous infusion into a superficial leg vein at doses earlier determined to stimulate near maximal acid output from the gastric pouch. Gastric juice was collected at 30 minute intervals following the start of a pentagastrin infusion and measured to the nearest 0.1 ml. Ten collections were taken for each dog during an experiment. Acid concentration was determined by tritrating 1.0 ml of gastric juice to pH 7.4 with 0.1 N sodium hydroxide using an Autoburette and a glass electrode pH meter (Radiometer).
Drug or vehicle was given intravenously 90 minutes following the start of the pentagastrin infusion, at a dose of 1 mg/kg or less. Gastric acid antisecretory effects were calculated by comparing the lowest acid output after drug administration with the mean acid output immediately before drug.

Setting [2] is: dose of 1 mg/kg, pentagastrin-stimulated Heidenhain pouch dogs.

T1 sequence (P47747 whole entry): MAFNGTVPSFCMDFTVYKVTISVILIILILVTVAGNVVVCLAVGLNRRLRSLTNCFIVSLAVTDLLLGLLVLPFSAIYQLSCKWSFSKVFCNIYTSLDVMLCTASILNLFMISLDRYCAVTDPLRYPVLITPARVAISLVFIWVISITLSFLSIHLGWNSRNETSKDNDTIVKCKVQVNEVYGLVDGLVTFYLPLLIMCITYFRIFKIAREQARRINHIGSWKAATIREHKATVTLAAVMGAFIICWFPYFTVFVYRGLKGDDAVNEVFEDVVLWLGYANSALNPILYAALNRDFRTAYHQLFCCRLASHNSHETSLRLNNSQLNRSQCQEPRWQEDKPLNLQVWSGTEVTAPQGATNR

`NC(N)=Nc1nc(-c2c[nH]c(NCCCCc3ccccc3)n2)cs1` [product t]: the inhibition in vivo at 30 mg/kg in assay [1] was 86 to 100%. In addition, the Kb on H2 -receptor was no more than 100 nM.

`CN(C)c1nc(-c2csc(N=C(N)N)n2)c[nH]1` [product x]: in assay [1], the “inhibition of ethanol-induced ulceration” value is “no significant activity”. The compound `CCN(C)c1nc(-c2csc(N=C(N)N)n2)c[nH]1` [product y] came in with an inhibition in vivo at 30 mg/kg in assay [1] of no less than 19%.

`NC(N)=Nc1nc(-c2c[nH]c(NCc3ccccc3)n2)cs1` [product q] returned an inhibition in vivo at 30 mg/kg in assay [1] of 7 to 13%. In turn, `CC(C)CCNc1nc(-c2csc(N=C(N)N)n2)c[nH]1` [product m] gave an inhibition in vivo at 30 mg/kg in assay [1] of no less than 19%. On to `NC(N)=Nc1nc(-c2c[nH]c(NC3CCCCC3)n2)cs1` [product p], for which, in assay [1], the inhibition in vivo at 30 mg/kg lay in the range of 7 to 13%.

Turning to `NC(N)=Nc1nc(-c2c[nH]c(N3CCCCC3)n2)cs1` [product cc], in assay [1], the inhibition in vivo at 30 mg/kg was no less than 19%. The “inhibition of gastric secretion” value in the assay with Heidenhain pouch dogs (0.1 mg/kg, Heidenhain pouch dogs) is given as 72%; in the assay on Heidenhain pouch dogs (setting [2]), “at least 21%”. Turning to `NC(N)=Nc1nc(-c2c[nH]c(N3CCCC3)n2)cs1` [product bb], the inhibition in vivo at 30 mg/kg in assay [1] was no less than 19%.

Regarding `NC(N)=Nc1nc(-c2c[nH]c(N3CCOCC3)n2)cs1` [product aa], the “inhibition of ethanol-induced ulceration” value in assay [1] is listed as “no significant activity”.

`NC(N)=Nc1nc(-c2c[nH]c(NCCc3ccc(Cl)cc3)n2)cs1` [product w]: the “inhibition of gastric secretion” value in the assay with Heidenhain pouch dogs (the same (1 mg/kg) or a lower dose, Heidenhain pouch dogs) is “at least 97%”. Also, the Kb on H2 -receptor is no more than 100 nM. Take `CCN(CC)c1nc(-c2csc(N=C(N)N)n2)c[nH]1` [product z]: in assay [1], the inhibition in vivo at 30 mg/kg is no less than 19%. As for `NC(N)=Nc1nc(-c2c[nH]c(NCCCc3ccccc3)n2)cs1` [product s], in assay [1], the inhibition in vivo at 30 mg/kg was in the range of 86 to 100%. The Kb on H2 -receptor was no more than 100 nM. For the compound `NC(N)=Nc1nc(-c2c[nH]c(NCCc3ccccc3)n2)cs1` [product r], the “inhibition of gastric secretion” value with Heidenhain pouch dogs (setting [2]) is “at least 21%”.

`NC(N)=Nc1nc(-c2c[nH]c(NCCc3ccncc3)n2)cs1` [product u]: the inhibition in vivo at 30 mg/kg in assay [1] is 21 to 51%.

Consider `NC(N)=Nc1nc(-c2c[nH]c(NC3CC3)n2)cs1` [product n], for which, in assay [1], the inhibition in vivo at 30 mg/kg was in the range of 7 to 13%. The “inhibition of gastric secretion” value with Heidenhain pouch dogs (setting [2]) is “at least 21%”; in the assay with Heidenhain pouch dogs (dose of 3 microg/kg, Heidenhain pouch dogs) it was 42%. Also, the Kb at H2 -receptor was ≤ 1260 nM and ≤ 100 nM and 1.58 nM. On to `NC(N)=Nc1nc(-c2c[nH]c(NCCc3ccccn3)n2)cs1` [product v], for which the “inhibition of ethanol-induced ulceration” value in assay [1] was “no significant activity”. `NC(N)=Nc1nc(-c2c[nH]c(NC3CCCC3)n2)cs1` [product o]: the “inhibition of ethanol-induced ulceration” value in assay [1] is given as “no significant activity”. For the same compound, the Kb on H2 -receptor is no more than 1260 nM.
